The assay addresses Opioid receptor (Rattus norvegicus, UniProt P33533+P34975+P33535). Put plainly: Binding affinity against opiate receptor from rat neural membranes, using [3H]dihydromorphine as radioligand.

The IC50 is the concentration that gives 50% inhibition. High values mean lower potency, low ones higher potency. The molecule `CN1CCC23c4c5ccc(O)c4O[C@H]2C(O)C=C[C@@]3(NC(=O)CBr)C1C5` (some centres not stated) came in with an IC50 of 15 nM.

Molecule `CN1CCC23c4c5ccc(O)c4O[C@H]2C(=O)C=C[C@@]3(NC(=O)CBr)C1C5` (some centres not stated) displayed an IC50 of 10 nM.

For the origin of these results see ChEMBL document CHEMBL1122421 (J Med Chem, 1983).
